Reference: patent US12465584B2, “Agent for elevating nitric oxide concentration” (KYOWA HAKKO BIO CO., LTD., priority 2013, dated 2025)
Where two headings read alike, the source gives them in different places.

Tested on: NOx concentration in blood
Conditions: male SD rats, blood over 4 hours after last administration, FIG. 1

N[C@@H](CCC(=O)N[C@@H](CS)C(=O)NCC(=O)O)C(=O)O [glutathione, γ-L-Glu-L-Cys-Gly]
amount of increase in the NOx concentration in blood plasma from the baseline (25 mg/kg/day reduced glutathione orally once a day for three days, compared to control group): same tendency
amount of increase in the NOx concentration in blood plasma from the baseline (50 mg/kg/day reduced glutathione orally once a day for three days, compared to control group (P<0.05)): significantly increased
